Test results taken from ChEMBL document CHEMBL1129992, “Arylamide inhibitors of HIV-1 integrase” (J Med Chem, 1997).
pIC50: −log10 of the molar value.

Key:
[1] = molecular target: T1, Human immunodeficiency virus type 1 integrase (Human immunodeficiency virus 1, UniProt Q7ZJM1); experiment: Inhibition of HIV-1 integrase-mediated strand transfer
[2] = molecular target: T1, Human immunodeficiency virus type 1 integrase; experiment: Inhibition of HIV-1 integrase-mediated 3'-processing

T1 sequence (Q7ZJM1 whole entry): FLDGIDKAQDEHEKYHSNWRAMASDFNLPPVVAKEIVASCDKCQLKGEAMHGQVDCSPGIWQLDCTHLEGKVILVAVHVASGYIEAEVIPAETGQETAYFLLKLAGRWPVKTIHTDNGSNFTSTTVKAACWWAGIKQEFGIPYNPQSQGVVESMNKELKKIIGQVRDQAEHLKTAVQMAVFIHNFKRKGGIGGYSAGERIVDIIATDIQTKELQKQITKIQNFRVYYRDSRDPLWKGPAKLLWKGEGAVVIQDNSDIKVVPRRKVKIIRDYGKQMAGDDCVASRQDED

Compound | pIC50 [1] | pIC50 [2]
COc1ccc2cc(C(=O)NCCCNC(=O)c3ccc4cc(OC)ccc4c3)ccc2c1 | < 3.70 | < 3.70
O=C(CCc1ccc(O)cc1)NCCc1ccc(O)cc1 |  | < 3.46
O=C(CCc1cc(O)cc(O)c1)NCCCNC(=O)CCc1cc(O)cc(O)c1 | < 3.70 | < 3.70
COc1cc2ccc(C(=O)NCCCNC(=O)c3ccc4cc(OC)c(OC)cc4c3)cc2cc1OC | < 3.70 | < 3.70
O=C(CCc1ccc(O)c(O)c1)NCCc1ccc(O)c(O)c1 |  | 4.48
COC(=O)c1ccc2c(O)c(O)ccc2c1 | 4.28 | 4.23
O=C(O)c1ccc2c(O)c(O)ccc2c1 | 4.20 | 4.27
O=C(O)c1ccc2cc(O)c(O)cc2c1 | 5.33 | 5.27
O=C(NCCCNC(=O)c1ccc2c(O)c(O)ccc2c1)c1ccc2c(O)c(O)ccc2c1 | 6.96 | 6.64
COC(=O)c1ccc2cc(O)ccc2c1 | < 3.70 | < 3.70
O=C(CCc1ccc(O)c(O)c1)NCCc1cc(O)cc(O)c1 |  | < 3.46
O=C(CCc1ccc(O)cc1)NCCc1cccc(O)c1 |  | < 3.46
COc1ccc2cc(C(=O)NCCCNC(=O)c3ccc4c(OC)c(OC)ccc4c3)ccc2c1OC | < 3.70 | < 3.70
O=C(NCCCNC(=O)c1ccc2cc(O)c(O)cc2c1)c1ccc2cc(O)c(O)cc2c1 | 6.09 | 6.01
COC(=O)c1ccc2cc(O)c(O)cc2c1 | < 3.70 | < 3.70
O=C(NCCCNC(=O)c1ccc2cc(O)ccc2c1)c1ccc2cc(O)ccc2c1 | < 3.70 | < 3.70
O=C(CCc1cc(O)cc(O)c1)NCCc1cc(O)cc(O)c1 |  | < 3.46
O=C(O)c1ccc2cc(O)ccc2c1 | 3.76 | 3.76
O=C(CCc1ccc(O)cc1)NCCCNC(=O)CCc1ccc(O)cc1 | < 3.70 | < 3.70
O=C(CCc1cccc(O)c1)NCCc1ccc(O)cc1 |  | < 3.46
O=C(CCc1cccc(O)c1)NCCc1cccc(O)c1 |  | < 3.46
O=C(CCc1cccc(O)c1)NCCCNC(=O)CCc1cccc(O)c1 | < 3.70 | < 3.70
O=C(CCc1cc(O)cc(O)c1)NCCc1ccc(O)c(O)c1 |  | < 3.46
